Measured values taken from patent publication US8530433B2, “Use of icariside II in manufacture of products for preventing or treating male or female sexual dysfunction” (Bjo-Biomed Ltd, priority 2008, dated 2013).
pEC50: −log10 of the molar value.

Experiments:
[1] = test system: Porcine vascular endothelial cells (PAE); test: NOS enzyme activity in vascular endothelial cells (PAE), NOS kit; type: cell-based; conditions: for NOS enzyme activity: PAE cells
Protocol: (§1) Porcine vascular endothelial cells (PAE) were provided by the Institute of Urology, Peking University. The determination of the effect of icariside II on NOS activity in the endothelial cell is conducted using NOS kit (Cayman Chemical company, Ann Arbor, Mich., USA). Vascular endothelial cells (PAE) were treated with different concentrations of icariside II (0, 10^−9, 10^−8, 10^−7, 10^−6, 10^−5 and 10^−4 M) (sildenafil as the control group). 180 μl lysate was added into each culture well. 20 μl supernatant was used for protein concentration assay with BCA protein kit. And, 100 μl supernatant was analyzed for NOS activity with NOS kit (Cayman Chemical company, Ann Arbor, Mich., USA). NOS activity (units/mg)=[(valueNos-measure−valueNOS-blank)÷(38.3×10^6)]×[(2.15+supernatant volume)÷(15×supernatant volume)]÷[protein concentration of each Petri dish].

PAE-EGFR cells [2] = test: NOS enzyme activity in EGFR expressing PAE-EGFR cells, NOS kit; type: cell-based, porcine; conditions: for NOS enzyme activity: PAE-EGFR cells
Protocol: as §1, with “dish]. 1) The EGFR gene was subcloned into pGFP plasmid to construct pGFP-EGFR expression vector. With Liposome transfection reagent (Qigen), pGFP-EGFR was transfected into PAE cells. After the selection with 1800 μg/ml of G418, a single cell clone was selected. Western blot confirms the stable expression of EGFR in the PAE-EGFR cells.” for “dish].”

PAE-EGFR cells [3] = test: eNOS protein expression by Western blot in PAE-EGFR cells; type: cell-based, porcine; conditions: 12.5 μM, 24 hr; for eNOS protein expression (normalized to β-actin): PAE-EGFR cells; for eNOS expression levels: PAE-EGFR stable strains
Protocol: 1) The EGFR gene was subcloned into pGFP plasmid to construct pGFP-EGFR expression vector. With Liposome transfection reagent (Qigen), pGFP-EGFR was transfected into PAE cells. After the selection with 1800 μg/ml of G418, a single cell clone was selected. Western blot confirms the stable expression of EGFR in the PAE-EGFR cells. 2) 5×10^5 of the PAE cells and PAE-EGFR cells were seeded into 35 mm Petri dishes plate in quadruplicate. After 12 hours, PAE and PAE-EGFR cells was treated with 12.5 μM icariside II and sildenafil for 24 hr, respectively. Then the treated PAE and PAE-EGFR cells were lysed with RIPA buffer and subjected to 8% SDS-PAGE electrophoresis. eNOS protein expression was detect by Western blot. After development with super ECL luminescence substrate, the band was analyzed with a Optical density scanner. The results were analyzed by normalizing to β-actin. 3) 5×10^5 of the PAE cells and PAE-EGFR cells were seeded into 35 mm Petri dishes plate in quadruplicate. After 12 hours, PAE and PAE-EGFR cells was treated with 12.5 μM icariside II and sildenafil for 24 hr, respectively, in the presence or absence with 100 μg/ml of EGF. Then the treated PAE and PAE-EGFR cells were lysed with RIPA buffer and subjected to 8% SDS-PAGE electrophoresis. eNOS protein expression was detect by Western blot. After development with super ECL substrate, the band was analyzed with an Optical density scanner. The resulted results were analyzed by normalizing to β-actin.

[4] = test system: Primary human corpus cavernosum smooth muscle cells (CCSMCs); test: NOS activity in corpus cavernosum smooth muscle cells; type: cell-based
Protocol: Primary human corpus cavernosum smooth muscle cells ([…]) were provided by the Andrology Center of Peking University. The […] of the third passage were cultured in six well plates for two days. Then the cells were treated with icariside II or the sildenafil at a concentration of 0, 10^-9, 10^-8, 10^-7, 10^-6, 10^-5 M; or treated with icariside II (0, 10^-9, 10^-8, 10^-7, 10^-6, 10^-5 M) in the presence or absence of LNNA (4×10^-4 M). The control group was cultured with DMEM only. After 24 hours, the cells were washed three times and 180 μl lysis buffer was added into each well; 60 μl cell suspension was taken for protein concentration assay with BCA protein kit; 100 μl cell suspension was taken for NOS activity test. NOS activity (units/mg protein)=[(valueNOS-measure-valueNOS-blank)÷(38.3×10^6)]×[(2.15+supernatant volume)÷(15×S supernatant volume)]÷[protein concentration in each well].

[5] = test system: Primary human corpus cavernosum smooth muscle cells (CCSMCs); test: cGMP/cAMP biosynthesis in corpus cavernosum smooth muscle cells; type: cell-based; conditions: 4 hours; for effect on the cAMP concentration: P>0.05
Protocol: Primary human corpus cavernosum smooth muscle cells ([…]) were provided by the Andrology Center of Peking University. The […] of the third passage were cultured in six plates for two days. Then the cells were treated with icariside II or the sildenafil at the concentration of 0, 10^-9, 10^-8, 10^-7, 10^-6, 10^-5, M for 4 hours; or treated with icariside II or the sildenafil at the concentration of 0, 10^-9, 10^-8, 10^-7, 10^-6, 10^-5, 10^-4 M for 4 hours followed by a treatment with 10^-5 M of SNP for 30 min. The control group was cultured with DMEM only. Then to each well was added 0.4 mL 0.1 M HCl and incubated at room temperature for 20 minutes. Then the lysed cells are harvested. The cell suspension was collected in centrifuge tubes and centrifuged at 1000 g for 10 minutes; 60 μl cell suspension was taken for protein concentration assay with the BCA protein kit, and 100 μl cell suspension was taken for cGMP or cAMP concentration test. The concentration of cGMP [pmol/(mg prot·min)]=[cGMP or cAMP concentration×supernatant volume]÷reaction time×protein concentration in each well×supernatant volume].

[6] = 10^−8 M, listed as icariside II

| Compound | NOS enzyme activity ([1]; 10^−5 M) | NOS enzyme activity ([1]; 10^−6 M) | NOS enzyme activity ([1]; 10^−7 M) | NOS enzyme activity ([1]; 10^−8 M) | NOS enzyme activity ([1]; 10^−9 M) | NOS enzyme activity (PAE-EGFR cells [2]; 10^−5 M) | NOS enzyme activity (PAE-EGFR cells [2]; 10^−6 M) | NOS enzyme activity (PAE-EGFR cells [2]; 10^−7 M) | NOS enzyme activity (PAE-EGFR cells [2]; 10^−8 M) | NOS enzyme activity (PAE-EGFR cells [2]; 10^−9 M) | eNOS protein expression (normalized to β-actin) (PAE-EGFR cells [3]) | eNOS expression levels (PAE-EGFR cells [3]) | effect on the cAMP concentration [5] | further results |
| --- | --- | --- | --- | --- | --- | --- | --- | --- | --- | --- | --- | --- | --- | --- |
| CCCc1nn(C)c2c(=O)[nH]c(-c3cc(S(=O)(=O)N4CCN(C)CC4)ccc3OCC)nc12 [Sildenafil, sildenafil, reference compound] | 6.66 ± 0.65 u/mg | 5.99 ± 0.58 u/mg | 6.32 ± 0.63 u/mg | 5.85 ± 0.579 u/mg | 5.76 ± 0.56 u/mg | 8.99 ± 0.87 u/mg | 8.4 ± 0.84 u/mg | 8.53 ± 0.84 u/mg | 8.37 ± 0.82 u/mg | 8.48 ± 0.85 u/mg | 1.38 ± 0.013 | 1.12 | no significant effect | effect on NOS activity in endothelial cells ([1]; endothelial cells (PAE, PAE-EGFR), p>0.05): no significant effect; effect on NOS activity in CCSMCs ([4]; 10^−9 to 10^−5 M, 24 hours): no significant difference |
| icariside II | 18.66 ± 1.79 u/mg | 19.1 ± 1.9 u/mg | 16.46 ± 1.63 u/mg | 10.71 ± 0.98 u/mg | 8.65 ± 0.87 u/mg | 22.74 ± 2.27 u/mg | 23.91 ± 2.36 u/mg | 22.79 ± 2.45 u/mg | 15.37 ± 1.51 u/mg | 11.72 ± 1.21 u/mg | 2.08 ± 0.02 | 1.16 | no significant effect | NOS enzyme activity ([1]; 10^−6 M, listed as icariside II): 19.1±1.891 u/mg; NOS enzyme activity [1, 6]: 10.71±1.09 u/mg; NOS activity in PAE-EGFR cells higher than the activity in PAE cells (PAE-EGFR cells [2]; 10^−8 M): 4.66 u/mg; NOS enzyme activity (PAE-EGFR cells [2]; [6]): 15.37±1.49 u/mg; NOS activity (peak) ([4]; 10^−6 M, 24 hours, untreated 0.46 units/mg): 4.19 units/mg; NOS activity ([4]; 10^−8 M, 24 hours, untreated 0.46 units/mg): 1.59 units/mg; peak value of NOS activity in presence of LNNA ([4]; with LNNA 4×10^−4 M): 2.67 unit/mg; pEC50 ([5]; in presence of 10^−5 M SNP, read-out: EC50 of cGMP concentration increase): 5.99 |
